The target of assay [1] is T1, HiBit-BRG1 fusion protein in stable HeLa cell line expressing HiBit-BRG1 and LgBit (Homo sapiens, UniProt P51532).
T1 construct: expressed in transfected cells
Put plainly: HiBiT-BRG1 cell-based degradation assay (Nano-Glo HiBiT, 24 h). Conditions: HeLa HiBit-BRG1/LgBit cells; for Dmax: top dose 30 μM, read-out: BRG1 HiBit Degradation Maximum (%); for DC50: read-out: BRMG1 HiBit Degradation IC50. In short, it runs like this: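 Degradation calculated from NanoBiT luminescence relative to DMSO-treated cells (high) and cells given 2 μM known BRM/BRG1 degrader (low). HeLa cells stably expressing HiBiT-BRG1 plus LgBiT were exposed to compound for 24 h before lytic HiBiT detection.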
(In general: The HiBiT peptide binds its large partner to form an active luciferase.)

Assay [2] addresses T2, HiBiT-BRM fusion protein in stable HeLa cell line (Homo sapiens, UniProt P51531).
T2 construct: expressed in transfected cells
Put plainly: HiBiT-BRM cell-based degradation assay (Nano-Glo HiBiT Lytic Detection, 24 h). Set-up: DC50: scale not given here. Conditions: HeLa HiBiT-BRM cells; for DC50: read-out: BRM HiBit Degradation IC50; for BRM HiBit Degradation Maximum (%): top dose 30 μM. In short, it runs like this:
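HeLa stably expressing HiBiT-BRM; 24 h compound exposure, 10-pt 3-fold dilution from 30 μM final, duplicates. Lytic LgBiT complementation, luminescence. % degradation vs DMSO (HC) and 2 μM known BRM/BRG1 degrader (LC).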

T1 sequence (P51532 whole entry, the tested form may be a part): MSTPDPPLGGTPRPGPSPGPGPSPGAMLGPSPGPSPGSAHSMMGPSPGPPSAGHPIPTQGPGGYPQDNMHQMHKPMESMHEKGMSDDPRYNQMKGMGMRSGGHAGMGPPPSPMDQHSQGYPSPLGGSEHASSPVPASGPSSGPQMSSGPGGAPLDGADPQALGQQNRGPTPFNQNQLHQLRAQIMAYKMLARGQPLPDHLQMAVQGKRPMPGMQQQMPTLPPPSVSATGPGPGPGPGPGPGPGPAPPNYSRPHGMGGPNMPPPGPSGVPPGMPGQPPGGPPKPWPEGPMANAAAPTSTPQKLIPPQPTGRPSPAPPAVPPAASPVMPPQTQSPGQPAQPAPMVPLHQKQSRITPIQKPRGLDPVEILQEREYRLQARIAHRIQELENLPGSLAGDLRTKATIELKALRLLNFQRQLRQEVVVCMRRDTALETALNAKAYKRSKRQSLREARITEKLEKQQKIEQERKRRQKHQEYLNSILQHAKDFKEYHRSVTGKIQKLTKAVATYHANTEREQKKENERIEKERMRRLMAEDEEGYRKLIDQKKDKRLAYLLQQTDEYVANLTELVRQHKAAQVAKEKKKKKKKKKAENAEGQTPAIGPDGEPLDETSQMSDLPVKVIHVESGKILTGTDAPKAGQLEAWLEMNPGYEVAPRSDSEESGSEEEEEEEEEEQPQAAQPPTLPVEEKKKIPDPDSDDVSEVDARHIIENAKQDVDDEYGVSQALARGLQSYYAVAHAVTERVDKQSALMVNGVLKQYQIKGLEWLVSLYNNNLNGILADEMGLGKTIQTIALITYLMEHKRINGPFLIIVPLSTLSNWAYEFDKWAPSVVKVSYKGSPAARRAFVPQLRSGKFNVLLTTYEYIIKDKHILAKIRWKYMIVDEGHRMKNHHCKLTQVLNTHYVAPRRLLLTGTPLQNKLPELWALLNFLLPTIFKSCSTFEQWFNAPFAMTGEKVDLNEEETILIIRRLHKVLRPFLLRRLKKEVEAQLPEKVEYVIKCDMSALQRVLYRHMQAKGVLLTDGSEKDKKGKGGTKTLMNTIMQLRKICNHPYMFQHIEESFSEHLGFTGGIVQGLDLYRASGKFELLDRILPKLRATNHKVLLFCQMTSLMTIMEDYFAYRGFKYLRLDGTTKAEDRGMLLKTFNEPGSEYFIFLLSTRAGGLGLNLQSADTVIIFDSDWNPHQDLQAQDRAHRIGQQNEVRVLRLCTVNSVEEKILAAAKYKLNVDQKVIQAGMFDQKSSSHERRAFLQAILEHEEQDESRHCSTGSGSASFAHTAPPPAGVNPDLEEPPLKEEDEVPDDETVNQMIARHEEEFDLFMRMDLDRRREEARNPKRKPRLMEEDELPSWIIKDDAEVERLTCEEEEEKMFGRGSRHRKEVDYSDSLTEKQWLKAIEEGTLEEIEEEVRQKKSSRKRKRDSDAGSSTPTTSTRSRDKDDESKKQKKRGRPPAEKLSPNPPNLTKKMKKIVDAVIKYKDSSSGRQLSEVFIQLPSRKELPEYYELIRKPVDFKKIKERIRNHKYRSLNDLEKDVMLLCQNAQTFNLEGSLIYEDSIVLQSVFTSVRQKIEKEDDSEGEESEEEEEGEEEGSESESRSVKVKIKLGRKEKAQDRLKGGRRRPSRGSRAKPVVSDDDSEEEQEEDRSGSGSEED
T2 sequence (P51531 whole entry, the tested form may be a part): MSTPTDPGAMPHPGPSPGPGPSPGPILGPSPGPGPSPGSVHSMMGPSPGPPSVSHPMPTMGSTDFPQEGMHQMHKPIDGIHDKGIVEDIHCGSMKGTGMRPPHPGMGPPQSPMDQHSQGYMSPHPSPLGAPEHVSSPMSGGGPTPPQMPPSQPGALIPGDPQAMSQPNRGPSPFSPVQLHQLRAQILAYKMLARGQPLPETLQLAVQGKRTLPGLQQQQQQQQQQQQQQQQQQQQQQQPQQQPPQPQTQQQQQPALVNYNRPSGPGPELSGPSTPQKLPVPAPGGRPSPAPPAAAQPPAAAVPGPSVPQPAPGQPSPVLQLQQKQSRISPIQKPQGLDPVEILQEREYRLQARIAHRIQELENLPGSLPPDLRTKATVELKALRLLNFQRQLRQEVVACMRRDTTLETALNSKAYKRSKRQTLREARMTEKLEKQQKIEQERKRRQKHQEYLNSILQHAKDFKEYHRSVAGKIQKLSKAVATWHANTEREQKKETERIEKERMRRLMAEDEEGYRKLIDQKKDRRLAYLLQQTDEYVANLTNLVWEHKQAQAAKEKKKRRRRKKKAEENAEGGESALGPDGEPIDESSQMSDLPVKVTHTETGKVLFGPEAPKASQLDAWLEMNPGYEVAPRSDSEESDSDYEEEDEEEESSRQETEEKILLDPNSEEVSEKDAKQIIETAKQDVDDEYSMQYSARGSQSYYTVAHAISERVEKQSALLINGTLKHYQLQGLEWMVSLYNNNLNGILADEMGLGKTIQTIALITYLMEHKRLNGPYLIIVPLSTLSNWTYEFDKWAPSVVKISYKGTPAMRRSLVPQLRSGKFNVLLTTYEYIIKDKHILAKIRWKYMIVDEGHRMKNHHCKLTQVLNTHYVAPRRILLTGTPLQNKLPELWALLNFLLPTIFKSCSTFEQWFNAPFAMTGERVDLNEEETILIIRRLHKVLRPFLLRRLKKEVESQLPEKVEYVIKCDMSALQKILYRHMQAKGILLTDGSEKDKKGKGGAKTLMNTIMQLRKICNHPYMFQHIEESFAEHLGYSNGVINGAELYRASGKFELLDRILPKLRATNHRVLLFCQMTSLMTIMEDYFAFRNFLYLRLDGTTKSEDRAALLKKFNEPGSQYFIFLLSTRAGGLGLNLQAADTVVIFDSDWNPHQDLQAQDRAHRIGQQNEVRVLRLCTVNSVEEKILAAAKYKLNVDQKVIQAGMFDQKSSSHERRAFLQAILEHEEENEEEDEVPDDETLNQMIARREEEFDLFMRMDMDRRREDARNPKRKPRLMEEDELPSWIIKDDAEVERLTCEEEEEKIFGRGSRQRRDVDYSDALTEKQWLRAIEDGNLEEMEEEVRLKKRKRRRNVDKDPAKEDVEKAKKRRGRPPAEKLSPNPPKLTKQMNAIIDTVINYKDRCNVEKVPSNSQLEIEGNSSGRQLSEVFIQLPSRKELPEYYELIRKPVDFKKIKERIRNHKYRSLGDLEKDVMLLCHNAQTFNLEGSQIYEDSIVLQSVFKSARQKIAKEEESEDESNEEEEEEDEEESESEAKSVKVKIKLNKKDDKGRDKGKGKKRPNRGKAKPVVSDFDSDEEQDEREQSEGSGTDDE

For `Cc1ncsc1-c1ccc([C@H](C)NC(=O)[C@@H]2C[C@@H](O)CN2C(=O)C(C(C)C)n2cc(N3C[C@H]4CN(c5ccc6cc(-c7ccccc7O)nnc6c5)C[C@H]4C3)nn2)cc1` (stereo partly drawn) [Compound 213, (2S,4R)-4-hydroxy-1-(2-(4-((3aR,6aS)-5-(3-(2-hydroxyphenyl)cinnolin-7-yl)hexahydropyrrolo[3,4-c]pyrrol-2(1H)-yl)-1H-1,2,3-triazol-1-yl)-3-methylbutanoyl)-N-((S)-1-(4-(4-methylthiazol-5-yl)phenyl)ethyl)pyrrolidine-2-carboxamide], the Dmax in assay [1] was less than 50%. Besides, in assay [2], the DC50 is less than 0.01 µM and the “BRM HiBit Degradation Maximum (%)” value was “A (“A” indicates maximum degradation ≥75%)”.
As for `Cc1ncsc1-c1ccc([C@H](C)NC(=O)[C@@H]2C[C@@H](O)CN2C(=O)[C@@H](c2cc(N3CCN([C@H]4CCN(c5ccc6nnc(-c7ccccc7O)cc6c5)CC4(F)F)CC3)no2)C(C)C)cc1` [Compound 123, (2S,4R)-1-((R)-2-(3-(4-((S)-3,3-difluoro-1-(3-(2-hydroxyphenyl)cinnolin-6-yl)piperidin-4-yl)piperazin-1-yl)isoxazol-5-yl)-3-methylbutanoyl)-4-hydroxy-N-((S)-1-(4-(4-methylthiazol-5-yl)phenyl)ethyl)pyrrolidine-2-carboxamide], in assay [1], the DC50 was less than 0.01 µM and the Dmax was greater than 75%. Moreover, in assay [2], the DC50 is less than 0.01 µM and the “BRM HiBit Degradation Maximum (%)” value is on record as “A (“A” indicates maximum degradation ≥75%)”.
`Cc1ncsc1-c1ccc([C@H](C)NC(=O)[C@@H]2C[C@@H](O)CN2C(=O)[C@@H](c2cc(-c3cnc(N4CC(c5cc6nnc(-c7ccccc7O)cc6cc5Cl)C4)nc3)no2)C(C)C)cc1` [Compound 32]: the Dmax in assay [1] is less than 50%. Moreover, in assay [2], the DC50 was greater than 0.01 µM and the “BRM HiBit Degradation Maximum (%)” value is recorded as “B (“B” indicates maximum degradation ≥50%)”.
As to `CNC(=O)[C@@H]1C[C@@H](O)CN1C(=O)[C@@H](c1cc(N2CC3(CN(c4ccc5cc(-c6ccccc6O)nnc5c4)C3)C2)no1)C(C)C` [Compound 156, (2S,4R)-4-hydroxy-1-((R)-2-(3-(6-(3-(2-hydroxyphenyl)cinnolin-7-yl)-2,6-diazaspiro[3.3]heptan-2-yl)isoxazol-5-yl)-3-methylbutanoyl)-N-methylpyrrolidine-2-carboxamide], the Dmax in assay [1] was less than 50%. In addition, in assay [2], the DC50 is less than 0.01 µM and the “BRM HiBit Degradation Maximum (%)” value is reported as “A (“A” indicates maximum degradation ≥75%)”.
As to `Cc1ncsc1-c1ccc([C@H](C)NC(=O)[C@@H]2C[C@@H](O)CN2C(=O)[C@@H](c2cc(N3CCC4(CCN(c5ccc6nnc(-c7ccccc7O)cc6c5)C4)C3)no2)C(C)C)cc1` (stereo partly drawn) [Compound 98, (2S,4R)-4-hydroxy-1-((2R)-2-(3-(7-(3-(2-hydroxyphenyl)cinnolin-6-yl)-2,7-diazaspiro[4.4]nonan-2-yl)isoxazol-5-yl)-3-methylbutanoyl)-N-((S)-1-(4-(4-methylthiazol-5-yl)phenyl)ethyl)pyrrolidine-2-carboxamide], in assay [1], the DC50 was greater than 0.01 µM and the Dmax is greater than 75%. Moreover, in assay [2], the DC50 is less than 0.01 µM and the “BRM HiBit Degradation Maximum (%)” value was “A (“A” indicates maximum degradation ≥75%)”.
In the case of `Cc1ncsc1-c1ccc([C@H](C)NC(=O)[C@@H]2C[C@@H](O)CN2C(=O)[C@@H](c2cccc(N3CC4(C3)CN(c3ccc5cc(-c6ccccc6O)nnc5c3)C4)c2)C(C)C)cc1` [Compound 174, (2S,4R)-4-hydroxy-1-((R)-2-(3-(6-(3-(2-hydroxyphenyl)cinnolin-7-yl)-2,6-diazaspiro[3.3]heptan-2-yl)phenyl)-3-methylbutanoyl)-N—((S)-1-(4-(4-methylthiazol-5-yl)phenyl)ethyl)pyrrolidine-2-carboxamide], the Dmax in assay [1] is less than 50%. In addition, in assay [2], the DC50 is greater than 0.01 µM and the “BRM HiBit Degradation Maximum (%)” value is “A (“A” indicates maximum degradation ≥75%)”.
For `Cc1ncsc1-c1ccc([C@H](C)NC(=O)[C@@H]2C[C@@H](O)CN2C(=O)[C@H](C(C)C)n2cc(C3CC4(CC(c5ccc6nnc(-c7ccccc7O)cc6c5)C4)C3)nn2)cc1` (stereo partly drawn) [Compound 230, (2S,4R)-4-hydroxy-1-((S)-2-(4-(6-(3-(2-hydroxyphenyl)cinnolin-6-yl)spiro[3.3]heptan-2-yl)-1H-1,2,3-triazol-1-yl)-3-methylbutanoyl)-N-((S)-1-(4-(4-methylthiazol-5-yl)phenyl)ethyl)pyrrolidine-2-carboxamide], in assay [1], the DC50 is greater than 0.01 µM and the Dmax is greater than 75%. In assay [2], the DC50 was less than 0.01 µM and the “BRM HiBit Degradation Maximum (%)” value was “A (“A” indicates maximum degradation ≥75%)”.
With `Cc1ncsc1-c1ccc([C@H](C)NC(=O)[C@@H]2C[C@@H](O)CN2C(=O)C(C(C)C)n2cc(N3CCC(C4CCN(c5ccc6cc(-c7ccccc7O)nnc6c5)CC4)C3)nn2)cc1` (stereo partly drawn) [Compound 266, (2S,4R)-4-hydroxy-1-(2-(4-(3-(1-(3-(2-hydroxyphenyl)cinnolin-7-yl)piperidin-4-yl)pyrrolidin-1-yl)-1H-1,2,3-triazol-1-yl)-3-methylbutanoyl)-N-((S)-1-(4-(4-methylthiazol-5-yl)phenyl)ethyl)pyrrolidine-2-carboxamide], in assay [1], the DC50 was less than 0.01 µM and the Dmax was greater than 75%. Further, in assay [2], the DC50 was less than 0.01 µM and the “BRM HiBit Degradation Maximum (%)” value was “A (“A” indicates maximum degradation ≥75%)”.
With `Cc1ncsc1-c1ccc([C@H](C)NC(=O)[C@@H]2C[C@@H](O)CN2C(=O)[C@@H](c2cc(-c3cnc(N4CC(c5cc6cc(-c7ccccc7O)nnc6cc5Cl)C4)nc3)no2)C(C)C)cc1` [Compound 30], in assay [1], the DC50 is greater than 0.01 µM and the Dmax was greater than 75%. For the same molecule, in assay [2], the DC50 was less than 0.01 µM and the “BRM HiBit Degradation Maximum (%)” value was “A (“A” indicates maximum degradation ≥75%)”.
`Cc1ncsc1-c1ccc([C@H](C)NC(=O)[C@@H]2C[C@@H](O)CN2C(=O)C(C(C)C)n2cc(N3CCC4(CCN(c5ccc6cc(-c7ccccc7O)nnc6c5)CC4)C3)nn2)cc1` (stereo partly drawn) [Compound 233, (2S,4R)-4-hydroxy-1-(2-(4-(8-(3-(2-hydroxyphenyl)cinnolin-7-yl)-2,8-diazaspiro[4.5]decan-2-yl)-1H-1,2,3-triazol-1-yl)-3-methylbutanoyl)-N-((S)-1-(4-(4-methylthiazol-5-yl)phenyl)ethyl)pyrrolidine-2-carboxamide]: in assay [1], the DC50 was less than 0.01 µM and the Dmax is greater than 75%. In assay [2], the DC50 was less than 0.01 µM and the “BRM HiBit Degradation Maximum (%)” value is listed as “A (“A” indicates maximum degradation ≥75%)”.
For `CNC(=O)[C@@H]1C[C@@H](O)CN1C(=O)C(c1cc(N2CC3(CN(c4ccc5cc(-c6ccccc6O)nnc5c4)C3)C2)no1)C(C)C` (stereo partly drawn) [Compound 114, (2S,4R)-4-hydroxy-1-(2-(3-(6-(3-(2-hydroxyphenyl)cinnolin-7-yl)-2,6-diazaspiro[3.3]heptan-2-yl)isoxazol-5-yl)-3-methylbutanoyl)-N-methylpyrrolidine-2-carboxamide], the Dmax in assay [1] is less than 50%. Also, in assay [2], the DC50 is less than 0.01 µM and the “BRM HiBit Degradation Maximum (%)” value is “A (“A” indicates maximum degradation ≥75%)”.
